{"source": "paper PMC3984256", "about": "“A PCNA-Derived Cell Permeable Peptide Selectively Inhibits Neuroblastoma Cell Growth” (PLoS ONE, 2014)", "key": {"synchronized cells": {"system": "synchronized cells", "assay": "Cell cycle analysis of synchronized cells within 6 h (data not shown)", "assay_type": "cell-based", "details": "6 h after mimosine release", "description": "Cells were seeded at 1×10^5/ml. Once attached, cells were treated with or without R9-caPep for 48 hours. Cells were fixed in 60% ethanol and stained with propidium iodide (PI). The cellular PI fluorescence intensity was determined by flow cytometry. The flow cytometry data were analyzed by the FlowJo program to model various cell populations.\nCells were seeded at 1×10^5/ml onto a chamber slide and were allowed to attach overnight. To analyze the interaction of PCNA with FEN1, LIGI, or Pol ä, we first synchronize cells at the G1/S boundary. The synchronization is achieved by starving cells in medium containing 0.25% FBS for 24 h. Cells were further cultured in the complete medium containing 400 µM of mimosine for 24 h. To release cells into S phase, cells were washed and incubated in mimosine-free medium containing 30 µM R9-caPep or R9-srbPep for 6 h. We pre-determined that the majority of cells were in the S-phase 6 h after mimosine was removed (data not shown). Cells were fixed in ice-cold methanol:acetone (50%:50%) for 10 min or in 4% paraformaldehyde for 20 min at room temperature. Cells were incubated with a goat polyclonal anti-PCNA antibody (Santa Cruz) and a mouse monoclonal anti-FEN1 antibody (Santa Cruz), a mouse anti-POLD3 antibody (Sigma, St. Louis, MO), or a mouse anti-LIGI antibody (Abcam, Cambridge, MA) for 1 h at room temperature. […]"}, "[1]": {"system": "Rad51 foci in SK-N-BE(2)c cells", "assay": "Rad51 foci immunofluorescence after γ-irradiation", "assay_type": "cell-based, human", "details": "2 h peptide pretreatment, 5 Gy; 48 h after irradiation", "description": "(§1) To study DNA damage and repair, attached cells were pretreated with the peptides for 2 h and were then ã-irradiated (5 Gy). After irradiation, cells were cultured in the presence of the peptides for the indicated time. For analyzing ãH2A.X foci formation, cells were fixed in a solution of methanol and acetone (70%:30% v/v) for 15 min at −20°C. The slides were air-dried for storage and rehydrated in PBS prior to immunostaining. Cells were stained by a mouse monoclonal antibody specific to ãH2A.X (Millipore, Billerica, MA) followed by an Alexa Fluor 488 conjugated anti-mouse IgG antibody. For analyzing Rad51 foci formation, cells were fixed in PBS buffered 4% paraformaldehyde at room temperature for 15 min. After being washed twice by PBS, cells were permeabilized in PBS containing 0.5% triton for 15 min on ice. The fixed and permeabilized cells were stained with a rabbit polyclonal antibody raised against the human Rad51 (Santa Cruz) followed by an Alexa Fluor 488 conjugated anti-rabbit IgG antibody. Stained cells were visualized and imaged by a confocal microscope."}, "[2]": {"system": "PCNA and LIGI co-localization in SK-N-AS NB cells", "assay": "PCNA/LIGI co-localization, immunofluorescence", "assay_type": "cell-based, human", "details": "synchronized, 30 µM peptide 6 h after mimosine release", "description": "(§2) Cells were seeded at 1×10^5/ml onto a chamber slide and were allowed to attach overnight. To analyze the interaction of PCNA with FEN1, LIGI, or Pol ä, we first synchronize cells at the G1/S boundary. The synchronization is achieved by starving cells in medium containing 0.25% FBS for 24 h. Cells were further cultured in the complete medium containing 400 µM of mimosine for 24 h. To release cells into S phase, cells were washed and incubated in mimosine-free medium containing 30 µM R9-caPep or R9-srbPep for 6 h. We pre-determined that the majority of cells were in the S-phase 6 h after mimosine was removed (data not shown). Cells were fixed in ice-cold methanol:acetone (50%:50%) for 10 min or in 4% paraformaldehyde for 20 min at room temperature. Cells were incubated with a goat polyclonal anti-PCNA antibody (Santa Cruz) and a mouse monoclonal anti-FEN1 antibody (Santa Cruz), a mouse anti-POLD3 antibody (Sigma, St. Louis, MO), or a mouse anti-LIGI antibody (Abcam, Cambridge, MA) for 1 h at room temperature. After being washed with PBS, cells were incubated with Alexa Fluor 488 conjugated anti-mouse IgG and Alexa Fluor 555 conjugated anti-goat IgG antibodies (Invitrogen, Grand Island, NY) for 1 h. Cells were mounted in Vectashield with DAPI (Vector Labs, Burlingame, CA) and visualized by a confocal microscope."}, "[3]": {"system": "PCNA and FEN1 co-localization in SK-N-AS NB cells", "assay": "PCNA/FEN1 co-localization, immunofluorescence", "assay_type": "cell-based, human", "details": "synchronized, 30 µM peptide 6 h after mimosine release", "description": "as §2"}, "panel of NB cell lines": {"system": "panel of NB cell lines", "assay_type": "cell-based, human", "details": "up to 50 µM; data not shown", "description": "The human NB cell lines, SK-N-DZ, SK-N-BE(2)c, SK-N-AS, SK-N-SH, and SK-N-FI were obtained from the American Type Culture Collection (Rockville, MD). Cells were maintained in DMEM with 10% fetal bovine serum (FBS), 100 units/ml penicillin, and 100 µg/ml streptomycin in the presence of 5% CO2 at 37°C. Human PBMCs from a healthy donor were purchased from Sanguine BioSciences (Valencia, CA) and grown in RPMI1640 with10% FBS, 100 units/ml penicillin, 100 µg/ml streptomycin, and 10 ng/ml IL-2 in the presence of 5% CO2 at 37°C. Human embryonic progenitor cell line 7SM0032 was acquired from Millipore (Billerica, MA) and grown in the hEPM-1 Media Kit purchased from the same company.\nTo measure cell growth, cells were seeded at 3×10^4/ml. After being allowed to attach overnight, cells were treated with various concentrations of the peptides for 72 h. Cell growth was measured by the CellTitor-Glo assay (Promega, Madison, WI) according to manufacturer's instruction. To measure apoptosis, cells were seeded at 1×10^5/ml onto a chamber slide. Once attached, cells were treated with the peptides for 48 h. Cells were fixed and analyzed by a TUNEL assay using the TMR red in situ cell death detection kit (Roche Diagnostics, Indianapolis, IN)."}, "ãH2A.X level": {"system": "ãH2A.X level", "assay": "γH2A.X western blot after γ-irradiation", "assay_type": "cell-based", "details": "30 µM peptide, 2 h pretreatment, 5 Gy", "description": "as §1\nCell extracts were prepared by dissolving cell pellets directly into the Laemmli sample buffer and resolved in a 4–12% SDS polyacrylamide gel. Resolved proteins were blotted onto a nitrocellulose membrane. The membrane was blocked with 5% nonfat dry milk and incubated with an antibody specific to ãH2A.X (Millipore), total H2A.X (Cell Signaling Technology, Danvers, MA), MYCN (Cell Signaling Technology), or actin (Sigma) in the blocking buffer. After incubation with peroxidase-conjugated secondary antibodies, the protein of interest was detected using an ECL kit purchased from GE Healthcare."}, "[4]": {"molecular_target": "T1, interaction between PCNA and the PIP-box sequence of FEN1 (Homo sapiens, UniProt P39748)", "T1 construct": "Recombinant PCNA (rPCNA), purchased from Surmodics, Inc. (Edina, MN); FEN1 peptide containing the PIP-box (SKSRQGSTQGRLDDFF); purchased Surmodics, Inc. (Edina, MN)", "assay": "SPR (Biacore) PCNA binding to immobilized FEN1 PIP-box in presence of caPep", "description": "All experiments were conducted on the Biacore T100 (GE Healthcare Life Sciences, Piscataway, NJ) in the running buffer HBS-EP+ (10 mM HEPES pH 7.4, 0.15 M NaCl, 3 mM EDTA, 0.05% v/v Surfactant P20). FEN1 peptide containing the PIP-box (SKSRQGSTQGRLDDFF) was immobilized on a carboxymethylated dextran modified CM5 chip using carbodiimide covalent linkage procedures outlined by the manufacturer (GE Healthcare Life Sciences). Recombinant PCNA (rPCNA), purchased from Surmodics, Inc. (Edina, MN), were serially diluted in the HBS-EP+ buffer and flowed over the FEN1-coated sensor chip in the presence of 0, 500, or 1000 nM of caPep at a 5 ìl/min flow rate with a contact time of 3 minutes, followed by dissociation under the same buffer condition and regeneration of the chip surface in 10 mM glycine-HCl (pH 2.0). Binding curves were recorded for rPCNA concentrations ranging from 250 to 1000 nM in the presence of 0, 500, or 1000 nM of caPep. Kinetic parameters from Biacore binding data were determined using Biacore T100 Evaluation Software Version 2.0.3."}, "SK-N-BE(2)c cells": {"system": "SK-N-BE(2)c cells", "assay": "Clonogenic assay", "assay_type": "cell-based, human", "details": "R9-caPep alone 20 µM 3 weeks, or cisplatin alone 1 µM 2 h, 3 dishes averaged", "description": "Three hundred fifty SK-N-BE(2)c cells were seeded onto a 60-mm tissue culture dish. Once attached overnight, cells were treated with or without cisplatin for 2 h. Cells were washed twice with growth medium and were cultured in fresh medium with or without R9-caPep for 3 weeks to allow colony formation. The medium was changed every 3 d. The colonies formed under each treatment conditions were counted after being stained with 0.5% crystal violet."}}, "data": [{"compound": "RDRDRDRDRDRDRDRDRDCCEPGLIYEQ [R9-srbPep, R9-CC fused to the same residues as PCNA L126-Y133 in scrambled order; control]", "values": [{"measurement": "cell cycle progress within 6 h", "setting": "synchronized cells", "value": "neither peptide significantly affected cell cycle progress within 6 h"}, {"measurement": "Rad51 foci at 48 h", "setting": "[1]", "value": "almost completely resolve the Rad51 foci"}, {"measurement": "LIGI co-localization with PCNA foci", "setting": "[2]", "value": "PCNA co-localized with FEN1 and LIGI at discrete foci"}, {"measurement": "FEN1 co-localization with PCNA foci", "setting": "[3]", "value": "PCNA co-localized with FEN1 and LIGI at discrete foci"}, {"measurement": "effect on cell growth", "setting": "panel of NB cell lines", "value": "did not significantly affect cell growth up to 50 µM"}, {"measurement": "ãH2A.X level within 30 min after irradiation", "setting": "ãH2A.X level", "value": "increased within 30 min following ã-irradiation in cells treated with either peptide"}, {"measurement": "ãH2A.X level 48 h after irradiation", "setting": "ãH2A.X level; 48 h", "value": "went down to a basal level by 48 h"}]}, {"compound": "caPep: eight amino acid peptide corresponding to the L126-Y133 sequence of human PCNA (LGIPEQEY)", "values": [{"measurement": "affinity of PCNA-FEN1 PIP-box interaction", "setting": "[4]; 0, 500 or 1000 nM caPep", "value": "decrease the affinity of PCNA-FEN1 PIP-box interaction in a dose-dependent manner"}, {"measurement": "rPCNA interaction with immobilized FEN1 PIP-box sequence (SPR response)", "setting": "[4]; 1000 nM rPCNA, 0, 500 or 1000 nM caPep", "value": "significantly reduced rPCNA interaction with the immobilized FEN1 PIP-box sequence"}]}, {"compound": "N.N.[Cl][Pt][Cl]", "note": "[cisplatin, reference compound]", "values": [{"measurement": "reduction of number of colonies, single agent", "setting": "SK-N-BE(2)c cells", "value": "less than 30%"}]}]}
